Among the data in PubChem BioAssay AID256 (DTP/NCI, 2004) are T/C values, retold here.

Each structure is given as a SMILES string. Values joined by “and” are separate entries in the source; they are usually repeats but may differ in a detail not shown here. Identical values can stand only once. Inconclusive results and toxic doses are left out.

The subject of this assay is CD2F1 mice, L1210 leukemia ip, survival T/C. In words: NCI In Vivo Anticancer Drug Screen. Data for tumor model L1210 Leukemia (intraperitoneal) in CD2F1 (CDF1) mice. The note with it: higher = longer survival. The gist of the method:
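Transplantable tumor in mice; compound-treated vs vehicle-treated groups. Read-out = treated/control ratio of the measured endpoint.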

Setting [1] is: endpoint: mean survival time, dose: 25.0 mg/kg/injection, schedule: Q04DX002 (ip), vehicle: saline.
The mark [2] stands for this setting: endpoint: mean survival time, dose: 50.0 mg/kg/injection, schedule: Q04DX002 (ip), vehicle: saline.
The mark [3] stands for this setting: endpoint: mean survival time, dose: 100.0 mg/kg/injection, schedule: Q04DX002 (ip), vehicle: saline.
[4] abbreviates: endpoint: mean survival time, dose: 100.0 mg/kg/injection, schedule: Q04DX003 (ip), vehicle: saline.
Where [5] appears, read: endpoint: mean survival time, dose: 200.0 mg/kg/injection, schedule: Q04DX003 (ip), vehicle: saline.
The mark [6] stands for this setting: endpoint: mean survival time, dose: 75.0 mg/kg/injection, schedule: Q01DX001 (ip), vehicle: saline.
Where [7] appears, read: endpoint: mean survival time, dose: 150.0 mg/kg/injection, schedule: Q01DX001 (ip), vehicle: saline.
Where [8] appears, read: endpoint: mean survival time, dose: 25.0 mg/kg/injection, schedule: Q01DX009 (ip), vehicle: saline with Tween-80.
Where [9] appears, read: endpoint: mean survival time, dose: 100.0 mg/kg/injection, schedule: Q04DX003 (ip), vehicle: saline with Tween-80.
Where [10] appears, read: endpoint: mean survival time, dose: 100.0 mg/kg/injection, schedule: Q01DX001 (ip), vehicle: saline with Tween-80.
Setting [11] is: endpoint: mean survival time, dose: 200.0 mg/kg/injection, schedule: Q01DX001 (ip), vehicle: saline with Tween-80.
Setting [12] is: endpoint: mean survival time, dose: 400.0 mg/kg/injection, schedule: Q01DX001 (ip), vehicle: saline with Tween-80.
[13] abbreviates: endpoint: mean survival time, dose: 200.0 mg/kg/injection, schedule: Q04DX003 (ip), vehicle: saline with Tween-80.
Where [14] appears, read: endpoint: mean survival time, dose: 400.0 mg/kg/injection, schedule: Q04DX003 (ip), vehicle: saline with Tween-80.
[15] abbreviates: endpoint: mean survival time, dose: 25.0 mg/kg/injection, schedule: Q01DX009 (ip), vehicle: Klucel (hydroxypropylcellulose) (HPC).
[16] abbreviates: endpoint: mean survival time, dose: 50.0 mg/kg/injection, schedule: Q01DX009 (ip), vehicle: Klucel (hydroxypropylcellulose) (HPC).

As to `NCC1CCNCC1`, the T/C is, setting by setting: under setting [1], 94 % of control; under setting [2], 97 % of control; under setting [3], 91 % of control; (endpoint: mean survival time, dose: 200.0 mg/kg/injection, schedule: Q04DX002 (ip), vehicle: saline) 102 % of control.
With `C1CN2CCOB(O1)OCC2`, the T/C by setting is: under setting [4], 94 % of control; under setting [5], 98 % of control; (endpoint: mean survival time, dose: 400.0 mg/kg/injection, schedule: Q04DX003 (ip), vehicle: saline) 93 % of control.
Consider `COc1cc2c(cc1O)C(C)NCC2` (configuration not stated), for which the T/C was 109 % of control under setting [6] and 101 % of control under setting [7].
Consider `CCCCC(=O)N(c1ccc(Nc2c3ccccc3nc3cc([N+](=O)[O-])ccc23)cc1)S(C)(=O)=O`, for which the T/C reads like this: (endpoint: mean survival time, dose: 2.1 mg/kg/injection, schedule: Q04DX003 (ip), vehicle: Klucel (hydroxypropylcellulose) (HPC)) 117 % of control; under setting [8], 96 % of control; under setting [9], 98 % of control; under setting [4], 167 % of control; (endpoint: mean survival time, dose: 150.0 mg/kg/injection, schedule: Q04DX003 (ip), vehicle: saline with Tween-80) 93 % of control; under setting [5], 113 % of control.
In the case of `c1ccc2c3c(ccc2c1)OCCOCCOCCOCCOc1ccc2ccccc2c1-3`, the T/C under setting [10] was 91 % of control, the T/C under setting [11] was 100 % of control and the T/C under setting [12] is 100 % of control.
Turning to `CC(CC(=O)O)c1ccc(F)cc1` (configuration not stated), the T/C is, setting by setting: under setting [9], 101 % of control; under setting [13], 100 % of control; under setting [14], 95 % of control.
Regarding `CC(C)CCCC(C)C1CCC2C3=CCC4CC(O)CCC4(C)C3CCC21C` (configuration not stated), the T/C is, setting by setting: under setting [9], 100 % of control; under setting [13], 91 % of control; under setting [14], 94 % of control.
In the case of `Cn1c(CC(O)(C(F)(F)F)C(F)(F)F)cc(=O)n1-c1ccccc1`, the T/C was 95 % of control under setting [9] and 94 % of control under setting [13].
As for `CCOC(=O)C(C)C(=O)NCc1ccccc1` (configuration not stated), the T/C reads like this: under setting [15], 95 % of control; under setting [16], 96 % of control; (endpoint: mean survival time, dose: 100.0 mg/kg/injection, schedule: Q01DX009 (ip), vehicle: Klucel (hydroxypropylcellulose) (HPC)) 96 % of control; (endpoint: mean survival time, dose: 200.0 mg/kg/injection, schedule: Q01DX009 (ip), vehicle: Klucel (hydroxypropylcellulose) (HPC)) 93 % of control; (endpoint: mean survival time, dose: 400.0 mg/kg/injection, schedule: Q01DX009 (ip), vehicle: Klucel (hydroxypropylcellulose) (HPC)) 98 % of control.
As for `CCC1(C(=O)OC)CCC2C3CCC4CCCCC4(C)C3CCC21C` (configuration not stated), the T/C runs as follows: (endpoint: mean survival time, dose: 75.0 mg/kg/injection, schedule: Q04DX003 (sc), vehicle: steriod suspending solution) 103 % of control; (endpoint: mean survival time, dose: 150.0 mg/kg/injection, schedule: Q04DX003 (sc), vehicle: steriod suspending solution) 101 % of control; (endpoint: mean survival time, dose: 300.0 mg/kg/injection, schedule: Q04DX003 (sc), vehicle: steriod suspending solution) 101 % of control.
As for `CC1(C)C2CCC1(CS(=O)(=O)O)C(=O)C2Br.[Ag]` (configuration not stated), where the note is “endpoint: mean survival time, dose: 100.0 mg/kg/injection, schedule: Q04DX003 (ip), vehicle: acetone”, the T/C is 96 % of control.
`NC(=O)C(CO)NC(=O)OCc1ccccc1` (configuration not stated): the T/C is 103 % of control (endpoint: mean survival time, dose: 25.0 mg/kg/injection, schedule: Q01DX005 (ip), vehicle: water); 104 % of control (endpoint: mean survival time, dose: 50.0 mg/kg/injection, schedule: Q01DX005 (ip), vehicle: water); 95 % of control (endpoint: mean survival time, dose: 100.0 mg/kg/injection, schedule: Q01DX005 (ip), vehicle: water); 97 % of control (endpoint: mean survival time, dose: 200.0 mg/kg/injection, schedule: Q01DX005 (ip), vehicle: water); 93 % of control (endpoint: mean survival time, dose: 400.0 mg/kg/injection, schedule: Q01DX005 (ip), vehicle: water).
For the molecule `CC[C@@H](C)[C@@H]1NC(=O)C(NC(=O)C(CC(C)C)N(C)C(=O)C2CCCN2C(=O)C(C)O)C(C)OC(=O)C(Cc2ccc(OC)cc2)N(C)C(=O)C2CCCN2C(=O)C(CC(C)C)NC(=O)C(C)C(=O)C(C(C)C)OC(=O)C[C@H]1O` (some centres not stated), the T/C was 104 % of control (endpoint: median survival time, dose: 10.0 micrograms/kg/injection, schedule: Q01DX009 (ip), vehicle: distilled water + alcohol); 111 % of control (endpoint: median survival time, dose: 25.0 micrograms/kg/injection, schedule: Q01DX009 (ip), vehicle: distilled water + alcohol); 104 % of control (endpoint: median survival time, dose: 40.0 micrograms/kg/injection, schedule: Q01DX009 (ip), vehicle: distilled water + alcohol); 111 % of control (endpoint: median survival time, dose: 50.0 micrograms/kg/injection, schedule: Q01DX009 (ip), vehicle: distilled water + alcohol); 112 % of control (endpoint: median survival time, dose: 80.0 micrograms/kg/injection, schedule: Q01DX009 (ip), vehicle: distilled water + alcohol); 121 % of control (endpoint: median survival time, dose: 100.0 micrograms/kg/injection, schedule: Q01DX009 (ip), vehicle: distilled water + alcohol). Besides, where the note is “endpoint: median survival time, dose: 160.0 micrograms/kg/injection, schedule: Q01DX009 (ip), vehicle: distilled water + alcohol”, the T/C was 112 % of control.
Turning to `Cc1nc(N)nc(N)c1N1CCN(c2ccc(C(=O)NC(C(=O)O)C(=O)O)cc2)CC1`, the T/C runs as follows: (endpoint: median survival time, dose: 1.88 mg/kg/injection, schedule: Q01DX005 (ip), vehicle: Klucel + Tween-80) 117 % of control; (endpoint: median survival time, dose: 3.75 mg/kg/injection, schedule: Q01DX005 (ip), vehicle: Klucel + Tween-80) 152 % of control; (endpoint: median survival time, dose: 7.5 mg/kg/injection, schedule: Q01DX005 (ip), vehicle: Klucel + Tween-80) 150 % of control and 163 % of control; (endpoint: median survival time, dose: 15.0 mg/kg/injection, schedule: Q01DX005 (ip), vehicle: Klucel + Tween-80) 167 % of control and 184 % of control; (endpoint: median survival time, dose: 30.0 mg/kg/injection, schedule: Q01DX005 (ip), vehicle: Klucel + Tween-80) 181 % of control.
Regarding `COc1cc2cccc(OC)c(=O)c2c(O)c1OC`, the T/C by setting is: (endpoint: mean survival time, dose: 100.0 mg/kg/injection, schedule: Q01DX001 (ip), vehicle: saline) 98 % of control; (endpoint: mean survival time, dose: 200.0 mg/kg/injection, schedule: Q01DX001 (ip), vehicle: saline) 101 % of control; (endpoint: mean survival time, dose: 400.0 mg/kg/injection, schedule: Q01DX001 (ip), vehicle: saline) 101 % of control.
With `CCCCN=C(N)CCl`, the T/C is 100 % of control under setting [1]; 100 % of control under setting [2]; 100 % of control and 111 % of control under setting [3].
For `C=C1CN(C(=O)NCCCl)C1`, the T/C runs as follows: under setting [10], 100 % of control; under setting [11], 100 % of control; under setting [12], 97 % of control.
As to `CNNC1CCC2C3CCc4cc(O)ccc4C3CCC12C` (configuration not stated), the T/C (endpoint: mean survival time, dose: 12.5 mg/kg/injection, schedule: Q01DX009 (ip), vehicle: Klucel (hydroxypropylcellulose) (HPC)) is 91 % of control; the T/C under setting [15] was 94 % of control; the T/C under setting [16] is 91 % of control.
Turning to `O=c1c(O)c(-c2cc(O)c(O)c(O)c2)oc2cc(O)cc(O)c12`, the T/C by setting is: under setting [8], 98 % of control; (endpoint: mean survival time, dose: 50.0 mg/kg/injection, schedule: Q01DX009 (ip), vehicle: saline with Tween-80) 91 % of control; (endpoint: mean survival time, dose: 100.0 mg/kg/injection, schedule: Q01DX009 (ip), vehicle: saline with Tween-80) 93 % of control; (endpoint: mean survival time, dose: 200.0 mg/kg/injection, schedule: Q01DX009 (ip), vehicle: saline with Tween-80) 95 % of control.
For `O=S1(=O)CCCCC1`, the T/C is 98 % of control (endpoint: mean survival time, dose: 37.5 mg/kg/injection, schedule: Q01DX009 (ip), vehicle: saline); 104 % of control under setting [6]; 98 % of control (endpoint: mean survival time, dose: 75.0 mg/kg/injection, schedule: Q01DX009 (ip), vehicle: saline); 93 % of control (endpoint: mean survival time, dose: 75.0 mg/kg/injection, schedule: Q04DX003 (ip), vehicle: saline); 96 % of control under setting [7]; 98 % of control (endpoint: mean survival time, dose: 150.0 mg/kg/injection, schedule: Q01DX009 (ip), vehicle: saline). The T/C is, setting by setting: (endpoint: mean survival time, dose: 150.0 mg/kg/injection, schedule: Q04DX003 (ip), vehicle: saline) 96 % of control; (endpoint: mean survival time, dose: 300.0 mg/kg/injection, schedule: Q01DX001 (ip), vehicle: saline) 95 % of control; (endpoint: mean survival time, dose: 300.0 mg/kg/injection, schedule: Q04DX003 (ip), vehicle: saline) 100 % of control.
